Legend:
Format in all cases: in vivo, mouse
5xFAD mice [1] = experiment: Novel Object Recognition (NOR) test in 5xFAD mice; conditions: CBD 10 mg/kg intraperitoneally every other day, 8 doses over 2 weeks, from −0.2±0.8 in placebo, p≤0.04
Experimental: (§1) 5xFAD (expressing human APP and PSEN1 transgenes with a total of five AD-linked mutations) transgenic mice (male 9-12-month-olds) were used. These 5xFAD transgenic mice rapidly recapitulate major features of AD amyloid pathology. Mice were randomized into two experimental groups (placebo or CBD-treated; 6-10 mice/group) by a blinded investigator. A group of untreated wild-type (WT) experiments were performed in accordance with the rules and regulations of the Augusta University Institutional Animal Care and Use Committee (IACUC). In the treatment group, mice received CBD isolate (tetrahydrocannabinol-free, Canabidiol Ltd., Dublin, Ireland), 10 mg/kg intraperitoneally every other day for 8 doses over 2 weeks. […]
(§2) To assess the behavior, Open Field (OF) and Novel Object Recognition (NOR) tests were used. […] The ability of the mouse to discriminate between the familiar and novel object was quantified as a discrimination index, DI=(Tn−Tf)/(Tn+Tf), where Tn is the time spent by the mouse with the novel object, and Tf indicates the time spent with the familiar object. In OF evaluation, mice were tested in a square box (40 cm by 40 cm by 40 cm) for 10 min, and activity was digitally recorded. Distance traveled, mean velocity, and time spent in the center zone were analyzed with Ethovision XT video-tracking software (Noldus Information Technology, USA).

5xFAD mice [2] = experiment: Open Field (OF) test in 5xFAD mice; conditions: CBD 10 mg/kg intraperitoneally every other day, 8 doses over 2 weeks, 10 min test, from 190±90 sec in placebo, p>0.05
Experimental: as §1, §2

β-amyloid peptide = experiment: Immunofluorescence staining of β-amyloid peptide in brain tissues; conditions: 5xFAD mice, CBD 10 mg/kg intraperitoneally every other day, 8 doses over 2 weeks; hippocampus area
Experimental: (§3) 5xFAD (expressing human APP and PSEN1 transgenes with a total of five AD-linked mutations) transgenic mice (male 9-12-month-olds) were used. These 5xFAD transgenic mice rapidly recapitulate major features of AD amyloid pathology. Mice were randomized into two experimental groups (placebo or CBD-treated; 6-10 mice/group) by a blinded investigator. A group of untreated wild-type (WT) experiments were performed in accordance with the rules and regulations of the Augusta University Institutional Animal Care and Use Committee (IACUC). In the treatment group, mice received CBD isolate (tetrahydrocannabinol-free, Canabidiol Ltd., Dublin, Ireland), 10 mg/kg intraperitoneally every other day for 8 doses over 2 weeks. Placebo-treated mice were administered along the same schedule as CBD.
(§4) Brain and blood tissues were collected and processed for histology and Immunofluorescence imaging. Briefly, brain tissues were labeled with specific, fluorescent-conjugated antibodies with fluorescent conjugation against amyloid-β, IL-33, IBA1 (for microglia), TREM2, and GFAP (Glial Fibrillary Acidic Protein for astrocytes identification). Slides were counterstained using DAPI (4′,6-diamidino-2-phenylindole) prior to examination and imaging by Zeiss Fluorescence Microscope.

IL-33 [3] = experiment: Immunofluorescence staining of IL-33 in brain tissues; conditions: 5xFAD mice, CBD treated compared to untreated group; more evident in astrocytes
Experimental: as §3, §4

TREM2 [4] = experiment: Immunofluorescence staining of TREM2 in brain tissues; conditions: 5xFAD mice, CBD treated compared to untreated group; distinctively in microglial cells
Experimental: as §3, §4

IL-33 [5] = experiment: Flow cytometry of IL-33 in brain astrocytes (GFAP+ cells); conditions: brain of 5xFAD mice, CBD 10 mg/kg intraperitoneally, 8 doses over 2 weeks; p≤0.001
Experimental: as §1
(§5) For flow cytometry analysis, single-cell suspension was prepared from brain, and blood by sieving the brain tissues through a […] cell strainer followed by centrifugation (252 g, 10 min). All cells were then stained with fluorescent antibodies based on routine flow cytometry staining protocol as described previously to quantify astrocytes (GFAP+cells), IL-33, myeloid cells (CD11b+), and TREM2 in the brain as well as leukocytes (CD45+) and IL-6 in the blood. IL-6 was measured as a reliable biomarker in the blood. […] Proper compensation was set to ensure the median fluorescence intensities of negative and positive cells were […] and then was used to gate the population. […]

TREM2 [6] = experiment: Flow cytometry of TREM2 in brain microglia (CD11b+ cells); conditions: brain of 5xFAD mice, CBD 10 mg/kg intraperitoneally, 8 doses over 2 weeks; p≤0.0001
Experimental: as §1, §5

IL-6 = experiment: Flow cytometry of IL-6 in peripheral blood leukocytes; conditions: whole blood of 5xFAD mice, CBD 10 mg/kg intraperitoneally, 8 doses over 2 weeks; decreased from 6.9±1.9%, p≤0.009
Experimental: as §1, with “(IACUC).” for “(IACUC). In the treatment group, mice received CBD isolate (tetrahydrocannabinol-free, Canabidiol Ltd., Dublin, Ireland), 10 mg/kg intraperitoneally every other day for 8 doses over 2 weeks.”
For flow cytometry analysis, single-cell suspension was prepared from brain, and blood by sieving the brain tissues through a […] cell strainer followed by centrifugation (252 g, 10 min). All cells were then stained with fluorescent antibodies based on routine flow cytometry staining protocol as described previously to quantify astrocytes (GFAP+cells), IL-33, myeloid cells (CD11b+), and TREM2 in the brain as well as leukocytes (CD45+) and IL-6 in the blood. IL-6 was measured as a reliable biomarker in the blood. […] Flow cytometry data were analyzed using FlowJo V10. Proper compensation was set to ensure the median fluorescence intensities of negative and positive cells were […] and then was used to gate the population. […]

C=C(C)[C@@H]1CCC(C)=C[C@H]1c1c(O)cc(CCCCC)cc1O [CBD, cannabidiol]
discrimination index (DI), NOR (5xFAD mice [1]): 0.5±0.9 | Central zone stay, OF test (5xFAD mice [2]): 250 ± 80 s | β-amyloid peptide in brain tissues (immunofluorescence) (β-amyloid peptide): reduction of β-amyloid peptide | IL-33 expression in brain tissues (immunofluorescence) (IL-33 [3]): increase the expression of IL-33 | TREM2 expression in brain tissues (immunofluorescence) (TREM2 [4]): increase in TREM2 expression | increase in IL-33 expression in astrocytes (GFAP+ cells), flow cytometry (IL-33 [5]): 7 fold | increase in TREM2 expression in microglia (CD11b+ cells), flow cytometry (TREM2 [6]): 10 fold | IL-6 expression in peripheral leukocytes, flow cytometry (IL-6): 2.1±1.4%

— patent US20240226124A9, “CANNABIDIOL FOR TREATING NEURODEGENERATIVE DISEASES” (AUGUSTA UNIVERSITY RESEARCH INSTITUTE, INC., priority 2021, published 2024)
